How the values were obtained:
Assay in all cases: Kinase panel study
Type in all cases: biochemical
Details in all cases: read-out: Percentage of inhibition; for inhibition at 1 µM: 1000nM; for inhibition at 10 µM: 10000nM
LCK = target: T1, LCK (Homo sapiens, UniProt P06239)
T1 construct: purchased Thermo Fisher Scientific
Procedure, shortened: (§1)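 Lead compounds and derivatives were profiled by ZLyte or Adapta in vitro kinase assays. Each value reports inhibition percentage at one of two concentrations, 1 µM or 10 µM.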

EPHB4 = target: T2, EPHB4 (Homo sapiens, UniProt P54760)
T2 construct: purchased Thermo Fisher Scientific
T2 sequence (P54760 16-987): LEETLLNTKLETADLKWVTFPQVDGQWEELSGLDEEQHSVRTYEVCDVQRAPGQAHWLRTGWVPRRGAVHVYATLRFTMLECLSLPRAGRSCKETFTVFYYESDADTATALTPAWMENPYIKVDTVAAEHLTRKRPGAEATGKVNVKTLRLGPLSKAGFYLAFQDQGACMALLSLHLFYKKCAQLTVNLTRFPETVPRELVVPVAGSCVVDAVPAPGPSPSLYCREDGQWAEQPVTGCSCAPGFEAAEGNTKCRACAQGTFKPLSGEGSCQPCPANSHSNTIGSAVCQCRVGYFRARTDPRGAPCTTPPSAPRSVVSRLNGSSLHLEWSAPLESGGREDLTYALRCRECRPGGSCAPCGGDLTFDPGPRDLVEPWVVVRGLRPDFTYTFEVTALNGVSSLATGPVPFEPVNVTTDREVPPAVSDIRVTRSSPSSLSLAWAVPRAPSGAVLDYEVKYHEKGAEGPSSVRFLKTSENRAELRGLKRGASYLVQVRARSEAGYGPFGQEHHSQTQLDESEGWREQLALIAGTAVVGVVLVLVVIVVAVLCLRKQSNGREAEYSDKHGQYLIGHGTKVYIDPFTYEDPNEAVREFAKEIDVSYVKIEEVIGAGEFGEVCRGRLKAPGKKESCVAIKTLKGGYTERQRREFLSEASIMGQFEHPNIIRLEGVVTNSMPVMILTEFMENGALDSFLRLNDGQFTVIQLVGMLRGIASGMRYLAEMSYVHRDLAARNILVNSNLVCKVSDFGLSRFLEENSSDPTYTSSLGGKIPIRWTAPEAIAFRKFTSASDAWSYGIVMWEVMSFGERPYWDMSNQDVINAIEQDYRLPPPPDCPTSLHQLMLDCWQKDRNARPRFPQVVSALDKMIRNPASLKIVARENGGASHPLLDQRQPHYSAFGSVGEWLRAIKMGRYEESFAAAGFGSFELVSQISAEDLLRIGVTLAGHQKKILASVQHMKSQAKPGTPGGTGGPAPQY
Procedure, shortened: as §1

MAPKAPK5 (PRAK) = target: T3, MAPKAPK5 (PRAK) (Homo sapiens, UniProt Q8IW41)
T3 construct: purchased Thermo Fisher Scientific
T3 sequence (Q8IW41 1-473): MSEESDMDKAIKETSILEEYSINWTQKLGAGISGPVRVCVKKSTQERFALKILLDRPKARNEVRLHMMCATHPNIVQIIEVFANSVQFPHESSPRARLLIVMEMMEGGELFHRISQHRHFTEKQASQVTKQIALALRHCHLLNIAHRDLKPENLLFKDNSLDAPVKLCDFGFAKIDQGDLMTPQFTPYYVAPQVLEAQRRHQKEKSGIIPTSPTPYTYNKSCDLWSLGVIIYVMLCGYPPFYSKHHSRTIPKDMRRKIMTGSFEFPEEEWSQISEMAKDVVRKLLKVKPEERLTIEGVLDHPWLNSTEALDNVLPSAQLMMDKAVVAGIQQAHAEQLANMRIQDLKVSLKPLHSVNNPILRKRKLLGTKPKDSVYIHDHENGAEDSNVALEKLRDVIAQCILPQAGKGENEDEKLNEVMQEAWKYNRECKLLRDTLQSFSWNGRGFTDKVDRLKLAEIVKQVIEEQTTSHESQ
Procedure, shortened: as §1

DAPK1 = target: T4, DAPK1 (Homo sapiens, UniProt P53355)
T4 construct: purchased Thermo Fisher Scientific
T4 sequence (P53355 whole entry): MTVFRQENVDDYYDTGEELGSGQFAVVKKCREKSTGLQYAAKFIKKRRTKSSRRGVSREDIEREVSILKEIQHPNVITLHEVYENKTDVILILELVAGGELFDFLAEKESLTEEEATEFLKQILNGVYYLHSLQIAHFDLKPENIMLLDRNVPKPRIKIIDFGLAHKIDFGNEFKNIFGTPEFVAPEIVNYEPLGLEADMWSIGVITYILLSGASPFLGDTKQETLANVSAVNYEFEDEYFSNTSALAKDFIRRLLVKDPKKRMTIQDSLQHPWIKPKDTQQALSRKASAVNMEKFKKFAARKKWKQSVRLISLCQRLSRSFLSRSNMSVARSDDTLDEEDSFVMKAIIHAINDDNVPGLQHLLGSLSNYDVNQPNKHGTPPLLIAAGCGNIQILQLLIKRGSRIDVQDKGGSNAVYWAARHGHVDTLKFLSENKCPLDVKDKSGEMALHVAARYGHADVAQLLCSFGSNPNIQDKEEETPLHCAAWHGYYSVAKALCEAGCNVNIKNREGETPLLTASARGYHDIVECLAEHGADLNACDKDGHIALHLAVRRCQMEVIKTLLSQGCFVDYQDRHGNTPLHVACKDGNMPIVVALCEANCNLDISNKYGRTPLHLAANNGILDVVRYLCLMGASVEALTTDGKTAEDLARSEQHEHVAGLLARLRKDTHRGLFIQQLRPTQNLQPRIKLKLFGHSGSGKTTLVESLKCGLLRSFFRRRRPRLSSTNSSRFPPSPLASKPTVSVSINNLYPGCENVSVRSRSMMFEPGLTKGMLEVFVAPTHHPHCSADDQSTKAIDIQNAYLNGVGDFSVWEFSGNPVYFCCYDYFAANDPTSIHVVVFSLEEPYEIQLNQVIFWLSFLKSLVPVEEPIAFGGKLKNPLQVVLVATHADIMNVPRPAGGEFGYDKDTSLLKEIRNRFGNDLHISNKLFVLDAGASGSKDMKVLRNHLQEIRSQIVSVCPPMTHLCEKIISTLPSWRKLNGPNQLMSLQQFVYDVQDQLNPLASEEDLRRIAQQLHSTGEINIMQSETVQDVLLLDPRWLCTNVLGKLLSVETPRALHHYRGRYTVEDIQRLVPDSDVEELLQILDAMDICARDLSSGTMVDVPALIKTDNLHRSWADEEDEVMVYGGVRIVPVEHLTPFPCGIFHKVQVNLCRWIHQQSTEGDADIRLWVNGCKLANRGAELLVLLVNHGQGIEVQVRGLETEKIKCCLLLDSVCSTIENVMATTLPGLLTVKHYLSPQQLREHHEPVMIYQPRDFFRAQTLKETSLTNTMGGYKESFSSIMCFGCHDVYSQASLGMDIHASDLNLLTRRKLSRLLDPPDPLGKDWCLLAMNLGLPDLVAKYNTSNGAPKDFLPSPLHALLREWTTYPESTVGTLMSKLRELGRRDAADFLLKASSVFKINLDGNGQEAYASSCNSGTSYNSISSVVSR
Procedure, shortened: as §1

CDK18/cyclin Y = target: T5, CDK18/cyclin Y (Homo sapiens, UniProt Q07002)
T5 construct: purchased Thermo Fisher Scientific
T5 sequence (Q07002 whole entry): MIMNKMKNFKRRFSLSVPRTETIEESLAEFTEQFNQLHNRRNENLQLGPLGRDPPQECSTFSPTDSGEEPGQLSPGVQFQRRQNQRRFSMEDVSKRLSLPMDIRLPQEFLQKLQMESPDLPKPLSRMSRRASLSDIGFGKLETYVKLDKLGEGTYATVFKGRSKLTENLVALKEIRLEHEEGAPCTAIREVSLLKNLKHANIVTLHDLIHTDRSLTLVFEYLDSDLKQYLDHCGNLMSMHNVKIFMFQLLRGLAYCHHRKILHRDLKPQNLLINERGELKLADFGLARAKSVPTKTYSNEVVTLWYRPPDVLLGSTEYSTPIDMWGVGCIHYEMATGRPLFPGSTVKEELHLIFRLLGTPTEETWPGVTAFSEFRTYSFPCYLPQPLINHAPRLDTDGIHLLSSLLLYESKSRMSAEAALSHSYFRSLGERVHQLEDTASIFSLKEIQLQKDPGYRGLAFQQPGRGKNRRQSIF
T5 sequence (Q8ND76 whole entry partner): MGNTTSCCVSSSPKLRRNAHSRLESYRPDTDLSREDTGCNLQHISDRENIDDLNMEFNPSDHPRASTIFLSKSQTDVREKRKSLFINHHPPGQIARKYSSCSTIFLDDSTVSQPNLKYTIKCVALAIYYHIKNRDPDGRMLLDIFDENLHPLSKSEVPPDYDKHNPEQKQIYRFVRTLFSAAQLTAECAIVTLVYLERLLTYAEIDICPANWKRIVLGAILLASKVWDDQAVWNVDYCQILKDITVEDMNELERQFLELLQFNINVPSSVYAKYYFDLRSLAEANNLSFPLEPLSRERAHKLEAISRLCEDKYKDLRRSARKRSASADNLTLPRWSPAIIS
Procedure, shortened: as §1

CAMK2B (CaMKII beta) = target: T6, CAMK2B (CaMKII beta) (Homo sapiens, UniProt Q13554)
T6 construct: purchased Thermo Fisher Scientific
Procedure, shortened: as §1

FGFR4 = target: T7, FGFR4 (Homo sapiens, UniProt P22455)
T7 construct: purchased Thermo Fisher Scientific
T7 sequence (P22455 22-802): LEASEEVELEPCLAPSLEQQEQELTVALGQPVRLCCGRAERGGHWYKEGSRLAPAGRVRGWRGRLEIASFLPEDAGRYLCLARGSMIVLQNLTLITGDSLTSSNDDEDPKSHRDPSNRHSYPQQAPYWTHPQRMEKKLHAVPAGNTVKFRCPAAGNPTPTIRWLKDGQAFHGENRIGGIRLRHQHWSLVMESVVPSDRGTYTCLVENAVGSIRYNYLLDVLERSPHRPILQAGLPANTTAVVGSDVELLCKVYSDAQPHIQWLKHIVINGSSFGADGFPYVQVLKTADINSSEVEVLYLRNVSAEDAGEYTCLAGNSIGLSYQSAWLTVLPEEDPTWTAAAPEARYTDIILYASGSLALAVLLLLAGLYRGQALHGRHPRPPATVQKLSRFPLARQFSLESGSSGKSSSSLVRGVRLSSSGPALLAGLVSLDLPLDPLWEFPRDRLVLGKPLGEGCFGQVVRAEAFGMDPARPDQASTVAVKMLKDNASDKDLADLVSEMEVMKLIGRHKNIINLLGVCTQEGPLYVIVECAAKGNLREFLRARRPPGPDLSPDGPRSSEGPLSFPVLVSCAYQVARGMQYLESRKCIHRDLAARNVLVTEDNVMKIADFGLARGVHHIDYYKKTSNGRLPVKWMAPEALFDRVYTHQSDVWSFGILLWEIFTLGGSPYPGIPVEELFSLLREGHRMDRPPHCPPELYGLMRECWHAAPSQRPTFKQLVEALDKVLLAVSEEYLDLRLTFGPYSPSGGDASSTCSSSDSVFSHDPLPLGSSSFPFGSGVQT
Procedure, shortened: as §1

T1 sequence (P06239 whole entry): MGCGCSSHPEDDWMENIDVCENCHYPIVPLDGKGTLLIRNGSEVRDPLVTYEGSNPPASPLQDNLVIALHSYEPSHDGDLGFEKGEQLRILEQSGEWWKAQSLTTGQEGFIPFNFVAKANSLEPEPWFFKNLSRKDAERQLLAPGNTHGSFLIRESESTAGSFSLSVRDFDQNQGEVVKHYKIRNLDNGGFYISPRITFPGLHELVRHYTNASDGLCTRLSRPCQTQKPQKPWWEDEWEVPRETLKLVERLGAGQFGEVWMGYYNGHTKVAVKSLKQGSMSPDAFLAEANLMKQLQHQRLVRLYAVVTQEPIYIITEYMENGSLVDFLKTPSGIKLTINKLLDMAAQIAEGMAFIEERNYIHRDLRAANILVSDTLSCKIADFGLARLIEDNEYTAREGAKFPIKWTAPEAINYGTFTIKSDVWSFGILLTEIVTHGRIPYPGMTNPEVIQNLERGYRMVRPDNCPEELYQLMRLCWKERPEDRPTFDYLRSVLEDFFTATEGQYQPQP

Compound | inhibition at 1 µM (LCK) [%] | inhibition at 10 µM (LCK) [%] | inhibition at 1 µM (EPHB4) [%] | inhibition at 10 µM (EPHB4) [%] | inhibition at 1 µM (MAPKAPK5 (PRAK)) [%] | inhibition at 10 µM (MAPKAPK5 (PRAK)) [%] | inhibition at 1 µM (DAPK1) [%] | inhibition at 10 µM (DAPK1) [%] | inhibition at 1 µM (CDK18/cyclin Y) [%] | inhibition at 10 µM (CDK18/cyclin Y) [%] | inhibition at 1 µM (CAMK2B (CaMKII beta)) [%] | inhibition at 10 µM (CAMK2B (CaMKII beta)) [%] | inhibition at 1 µM (FGFR4) [%] | inhibition at 10 µM (FGFR4) [%]
COc1ccc2c(c1OC)c(=O)n1c3ccc(O)cc3c3ccnc2c31 [MW01, 5-Hydroxy-10,11-dimethoxy-9H-benzo[c]indolo[3,2,1-ij][1,5]naphthyridin-9-one] | 12 | 37 | 5 | 7 | 8 | 18 | 8 | 14 | 5 | 15 | 9 | 37 | 13 | 37
COc1ccc2cc3c(N)nn(C(=O)c4cccc(N(C)C)c4)c3nc2c1 [MW05, (3-Amino-7-methoxypyrazolo[3,4-b]quinolin-1-yl)-[3-(dimethylamino)phenyl]methanone] | 8 | 5 | -3 | 2 | 7 | 7 | 3 | 3 | 13 | 55 | 5 | 3 | 13 | -4

Reference: patent publication EP4467141A1, “PYRAZOLO-QUINOLINES AS SELECTIVE INHIBITORS OF GENOTOXIC STRESS-INDUCED IKK/NF- KB PATHWAYS FOR CANCER THERAPY” (Max-Delbrück-Centrum für Molekulare Medizin in der …, priority 2023, dated 2024)
